Laboratory results from patent publication US8895514B2, “Composition of tumor-associated peptides and related anti-cancer vaccine for the treatment of glioblastoma (GBM) and other cancers” (Immatics Biotechnologies GmbH, priority 2008, dated 2014).
Where no end group is shown, it is not given here.

How the values were obtained:
CD8+ T cells [1] = assay: In vitro priming of CD8+ T cells with pMHC/anti-CD28 coated beads, tetramer readout; type: cell-based, human; settings: for Positive donors/donors tested / Positive wells/wells tested: healthy donors, CD8+ cells stimulated with high density beads
Method: To perform in vitro stimulations by artificial antigen presenting cells (aAPC) loaded with peptide-MHC complex (pMHC) and anti-CD28 antibody, first we isolated PBMCs (peripheral blood mononuclear cells) from fresh HLA-A*02+ buffy coats by using standard density gradient separation medium (PAA, Cölbe, Germany). Buffy coats were either obtained from the Blood Bank Tübingen or from the Katharinenhospital Stuttgart. Isolated PBMCs were incubated overnight in T-cell medium (TCM) for human in vitro priming consisting of RPMI-Glutamax (Invitrogen, Karlsruhe, Germany) supplemented with 10% heat inactivated human AB serum (PAA, Cölbe, Germany), 100 U/ml Penicillin/100 μg/ml Streptomycin (Cambrex, Verviers, Belgium), 1 mM sodium pyruvate (CC Pro, Neustadt, Germany) and 20 μg/ml Gentamycin (Cambrex). CD8+ lymphocytes were isolated using the CD8+ MACS positive selection kit (Miltenyi, Bergisch Gladbach, Germany) according to the manufacturer's instructions.
800.000 beads/200 μl were coated in 96-well plates in the presence of 600 ng biotin anti-CD28 plus 200 ng relevant biotin-pMHC (high density beads) or 2 ng relevant plus 200 ng irrelevant (pMHC library) MHC (low density beads). Stimulations were initiated in 96-well plates by co-incubating 1×10^6 CD8+ T cells with 2×10^5 washed coated beads in 200 μl TCM supplemented with 5 ng/ml IL-12 (PromoCell) for 3-4 days at 37° C. Half of the medium was then exchanged by fresh TCM supplemented with 80 U/ml IL-2 and incubating was continued for 3-4 days at 37° C. This stimulation cycle was performed for a total of three times.
Results shown have been obtained by stimulation of CD8+ cells with high density beads. As different human serum lots may highly affect the immunogenicity results, only assays in which one and the same serum lot was used, were evaluated together.

CD8+ T cells [2] = assay: as above; type: cell-based, human; settings: small number of glioblastoma patients
anti-survivin T cells = assay: Phase I/II vaccination study, T-cell response to Survivin peptide (IFN-g ELISPOT, +/-ICS); type: in vivo, human
[3] = test system: HLA-DR broad antigens (HLA-DR1 to DR7); assay: ProImmune REVEAL MHC:peptide binding assay; design: species or system human; settings: relative to pass/fail control; MET-005 tested as two overlapping 15-mers
Method: The ProImmune REVEAL™ technology employs in vitro HLA-DR assembly assays to determine the on-rates for the MHC:peptide complex as one major determinant of the binding constant of individual peptides. The assay was performed by ProImmune (Oxford, UK). At a fixed time point, the amount of intact MHC:peptide complexes is measured and compared with the amount for a pass/fail control (relative weak binder). A strong, promiscuous HLA-DR binder is included as positive control. Values indicate amount of binding for the individual peptides and HLA-DR molecules relative to the pass/fail control.
In this assay, binding was compared to that of a pass/fail control binder, and to a positive control peptide for each HLA-DR antigen.

HLA-A*0201 = HLA-A*0201 (Homo sapiens, UniProt P04439, /I218V/L300P/L318F/N151K/N90K/P208A/P217A/Q86G/Q94H/R138H/R169H/T345S); assay: ELISA-based MHC refolding assay; type: binding
Method: The amount of de novo-folded HLA/peptide complexes was determined by a quantitative ELISA. Dissociation constants (KD values) were calculated using a standard curve recorded from dilutions of a calibrant HLA/peptide complex.

[4] = out of 18 patients treated, recurrent GBM, intermediate results; cited from earlier work

Compound | Positive donors/donors tested (CD8+ T cells [1]) [%] | Positive wells/wells tested (CD8+ T cells [1]) [%] | other results
SLWAGVVVL (listed as Homo sapiens) [CHI-001] | 100 | 63 | in vitro immunogenicity in glioblastoma patients (CD8+ T cells [2]): immunogenic to a similar extent compared with healthy donors
KVFAGIPTV (listed as Homo sapiens) [PTP-005] | 100 | 52 | –
NLDTLMTYV (listed as Homo sapiens) [NLGN4X-001] | 100 | 62 | in vitro immunogenicity in glioblastoma patients (CD8+ T cells [2]): immunogenic to a similar extent compared with healthy donors
KIQEILTQV (listed as Homo sapiens) [IGF2BP3-001] | 50 | 21 | –
ALWAWPSEL (listed as Homo sapiens) [BCA-002] | 75 | 35 | immunogenicity in comparison to another BCAN-derived peptide (IMA-BCA-001) (CD8+ T cells [1]): very immunogenic; in vitro immunogenicity in glioblastoma patients (CD8+ T cells [2]): immunogenic to a similar extent compared with healthy donors
TLGEFLKLDRERAKN (listed as Homo sapiens) [BIR-002] | – | – | patients with induction of an anti-survivin T-cell response upon vaccination (anti-survivin T cells; among the 16 reacting patients): 12; patients with pre existing anti-Survivin T cells (anti-survivin T cells; among the 16 reacting patients): 2; immunogenicity in clinical trial in prostate cancer patients with different HLA-DR alleles (anti-survivin T cells; in vivo): broad immunogenicity; patients who reacted to the peptide (IFN-g ELISPOT, +/-ICS) (anti-survivin T cells; of the 19 patients vaccinated, prostate carcinoma): 16; HLA-DR antigens for which in vitro binding was obtained [3]: HLA-DR1, 3, 4 and 11
GLWHHQTEV (listed as Homo sapiens) [NRCAM-001] | 86 | 39 | –
LTFGDVVAV (listed as Homo sapiens) [FABP7-001] | 100 | 27 | –
AIIDGVESV (listed as Homo sapiens) [PTP-003] | 50 | 17 | –
YVDPVITSI [MET-001] | 67 | 39 | –
CSCC[C@H](NC(=O)[C@@H](N)[C@@H](C)O)C(=O)N[C@@H](CC(C)C)C(=O)N[C@@H](C)C(=O)N[C@@H](CCCNC(=N)N)C(=O)N[C@@H](CC(C)C)C(=O)N[C@@H](C)C(=O)N[C@@H](CO)C(=O)N[C@@H](C)C(=O)O [CSP-001] | 100 | 57 | Kd (HLA-A*0201; recombinant HLA-A*0201 with b2m, quantitative ELISA, read-out: Dissociation constant (KD) to HLA-A*0201): 2.05 nM
TFSYVDPVITSISPKYG (listed as Homo sapiens) [MET-005, MET-derived elongated HLA class I TUMAP] | – | – | HLA class I binding of the full-length elongated peptide (HLA-A*0201): does not possess HLA class I binding capacities; HLA-DR antigens for which in vitro binding was obtained [3]: HLA-DR11
AMTQLLAGV (listed as Homo sapiens) [TNC-001] | 60 | 30 | –
AMG102: human neutralizing antibody against HGF | – | – | patients with minor response [4]: 1; patients with partial response [4]: 1
